From PubChem BioAssay (NCI)
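48-hour exposure; five concentrations; linearly interpolated endpoints. GI50 marks 50% less growth. TGI marks complete inhibition of growth.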

How the values were obtained:
Assay in all cases: NCI tumour cell line growth inhibition, 48 h
SNB-75 CNS = system: SNB-75 CNS
SK-OV-3 ovarian = system: SK-OV-3 ovarian
NCI/ADR-RES ovarian = system: NCI/ADR-RES ovarian
MALME-3M melanoma = system: MALME-3M melanoma
NCI-H23 lung = system: NCI-H23 lung
LOX IMVI melanoma = system: LOX IMVI melanoma
MOLT-4 leukemia = system: MOLT-4 leukemia
M14 melanoma = system: M14 melanoma
SW-620 colon = system: SW-620 colon
SK-MEL-5 melanoma = system: SK-MEL-5 melanoma

| Compound | TGI (SNB-75 CNS) | TGI (SK-OV-3 ovarian) | TGI (NCI/ADR-RES ovarian) | TGI (MALME-3M melanoma) | TGI (NCI-H23 lung) | TGI (LOX IMVI melanoma) | TGI (MOLT-4 leukemia) | TGI (M14 melanoma) | TGI (SW-620 colon) | TGI (SK-MEL-5 melanoma) | GI50 (SNB-75 CNS) | GI50 (NCI/ADR-RES ovarian) | GI50 (MALME-3M melanoma) | GI50 (NCI-H23 lung) | GI50 (LOX IMVI melanoma) | GI50 (MOLT-4 leukemia) | GI50 (M14 melanoma) | GI50 (SW-620 colon) | GI50 (SK-MEL-5 melanoma) | GI50 (SK-OV-3 ovarian) |
| --- | --- | --- | --- | --- | --- | --- | --- | --- | --- | --- | --- | --- | --- | --- | --- | --- | --- | --- | --- | --- |
| C=c1c2ccccc2oc2nc3[nH]c(N)c(C#N)c(N)c3c(=N)c12 | 90.3 µM | > 100 µM | > 100 µM | 78.7 µM | 62.7 µM | 68.4 µM | 89.2 µM | > 100 µM | > 100 µM | 57.2 µM | – | – | – | – | – | – | – | – | – | – |
| O=C(/C=C/c1cc2ccccc2[nH]c1=O)c1ccc(O)cc1 | 23 µM | – | > 100 µM | 33.6 µM | 20 µM | 12.7 µM | 9.91 µM | 6.57 µM | 4.45 µM | 13.3 µM | 9.3 µM | 2.9 µM | 10.4 µM | 3.18 µM | 2.47 µM | 3.04 µM | 2.6 µM | 1.89 µM | 3.98 µM | – |
| Cc1ccnc2[nH]c(-c3ccc(Cl)cc3)cc(=O)c12 | 25.8 µM | > 62.1 µM | > 100 µM | > 100 µM | > 100 µM | > 100 µM | > 100 µM | > 100 µM | > 100 µM | > 100 µM | – | – | – | – | – | – | – | – | – | – |
| O=C(Cn1cc(I)c(C(=O)NCC(O)CO)n1)NCC(O)CO (centres undefined) | > 100 µM | > 100 µM | – | > 100 µM | > 100 µM | > 100 µM | > 100 µM | > 100 µM | > 100 µM | – | – | – | – | – | – | – | – | – | – | – |
| CSCCC(NOC(=O)Cc1ccccc1)P(=O)(O)c1ccccc1 (centres undefined) | > 100 µM | > 100 µM | > 100 µM | – | > 100 µM | > 100 µM | > 100 µM | > 100 µM | > 100 µM | > 100 µM | – | – | – | – | – | – | – | – | – | – |
| Cc1cccc(N=Nc2ccc(O)c(CN(C)C)c2)c1 | 94.5 µM | > 100 µM | 72.6 µM | 21.8 µM | > 100 µM | 26.9 µM | 91.6 µM | 62.2 µM | 66.8 µM | 27.5 µM | – | – | – | – | – | – | – | – | – | – |
| COc1ccc(CNCCN2C(=O)c3ccc4c5c(ccc(c35)C2=O)C(=O)N(CCNCc2ccc(OC)c(OC)c2OC)C4=O)c(OC)c1OC | 2.09 µM | 50 µM | – | 0.297 µM | – | – | 0.613 µM | – | – | 1.09 µM | 0.903 µM | – | 0.112 µM | – | – | 0.151 µM | – | – | 0.48 µM | 1.67 µM |
| COc1c(C(=O)CC2c3c(cc4oc(C)cc(=O)c4c3OC)OC(=N)C2c2nc3ccccc3[nH]2)c(O)c(OC)c2occc12 (centres undefined) | > 100 µM | > 100 µM | > 100 µM | > 100 µM | > 100 µM | > 100 µM | > 100 µM | > 100 µM | > 100 µM | > 100 µM | – | – | – | – | – | – | – | – | – | – |
| COc1ccc(/C=N/NC(=O)NCCNCCO)cc1 | > 100 µM | > 100 µM | – | > 100 µM | > 100 µM | > 100 µM | > 100 µM | > 100 µM | > 100 µM | > 100 µM | – | – | – | – | – | – | – | – | – | – |
| CN(C)c1ccc(/C=C(\C#N)C(=O)c2ccccc2)cc1Br | > 100 µM | > 100 µM | – | > 100 µM | > 100 µM | 74.2 µM | > 100 µM | > 100 µM | > 100 µM | > 100 µM | – | – | – | – | – | – | – | – | – | – |
| O=C(NC12CC3CC(CC(C3)C1)C2)n1cnc2c(Cl)ncnc21 | 73.8 µM | 79.4 µM | > 100 µM | > 100 µM | 65.4 µM | 37.9 µM | 52.2 µM | 50.7 µM | > 100 µM | 53.5 µM | – | – | – | – | – | – | – | – | – | – |
| CCN1CCC(O)(/C=C/c2ccc(Cl)c(Cl)c2)C(C(=O)/C=C/c2ccc(Cl)c(Cl)c2)C1 (centres undefined) | 2.37 µM | 4.61 µM | 2.27 µM | 2.5 µM | 2.06 µM | 2.02 µM | – | 1.76 µM | 1.4 µM | 2.18 µM | – | – | – | – | – | – | – | – | – | – |
| CCc1cc2c(cc1O)CC[C@@H]1[C@@H]2CC[C@]2(C)[C@@H](O)CC[C@@H]12 | 7.59 µM | 39.6 µM | 9.92 µM | 12.5 µM | 20.6 µM | 26.6 µM | 20 µM | 19.8 µM | 16.6 µM | 20.4 µM | – | – | – | – | – | – | – | – | – | – |
| COc1cc([C@@H]2c3cc4c(cc3[C@H](OC3OC5COC(C(C)C)OC5C(O)C3O)C3COC(=O)[C@@H]32)OCO4)cc(OC)c1OC (some centres undefined) | 96.8 µM | > 100 µM | > 79.5 µM | 30.5 µM | 16.5 µM | 27 µM | > 68.4 µM | > 33 µM | > 100 µM | 20.4 µM | – | – | – | – | – | – | – | – | – | – |
| N#Cc1ccccc1C#C/C=C\C#Cc1ccccn1 | 67.6 µM | 76.7 µM | 34.3 µM | 39.6 µM | 25.5 µM | – | – | 28.8 µM | 31.9 µM | 12.9 µM | – | – | – | – | – | – | – | – | – | – |
| CCOC1=C2N=C(C(CC)c3ccc(F)cc3)N=C2C(=O)c2ccccc21 (centres undefined) | 81.5 µM | > 100 µM | – | 61.8 µM | 70.2 µM | 29.7 µM | > 86.2 µM | > 68.3 µM | > 100 µM | 26.9 µM | – | – | – | – | – | – | – | – | – | – |
| CCCC(CCC(=O)O)(CCC(=O)O)[N+](=O)[O-] | > 100 µM | > 100 µM | > 100 µM | > 100 µM | > 100 µM | – | > 100 µM | > 100 µM | > 100 µM | > 100 µM | – | – | – | – | – | – | – | – | – | – |
| C=C1C(=O)OC2C=C(C)CC3C=C(CCC=C(C)CCC12)C(=O)O3 (centres undefined) | 196 µM | 280 µM | 114 µM | > 81.4 µM | 117 µM | 95.1 µM | 159 µM | – | 107 µM | 138 µM | – | – | – | – | – | – | – | – | – | – |
| CN(C)CC(O)CNC(=O)Nc1ccccc1 (centres undefined) | > 100 µM | > 100 µM | > 100 µM | > 100 µM | > 100 µM | > 100 µM | – | > 100 µM | > 100 µM | > 100 µM | – | – | – | – | – | – | – | – | – | – |
| C#CCN1C(=O)CN2C(Cl)(Cl)C2(c2ccccc2)c2cc(Cl)ccc21 (centres undefined) | – | – | – | > 100 µM | > 100 µM | > 100 µM | 57.4 µM | > 100 µM | > 100 µM | > 100 µM | – | – | – | – | – | – | – | – | – | – |
| CC(C)c1cccc(C(C)C)c1NC(=O)/C(Cc1nc2ccc(Cl)cc2[nH]c1=O)=N\NC(=O)C[N+](C)(C)C | – | > 100 µM | – | > 100 µM | > 100 µM | – | > 100 µM | > 100 µM | > 100 µM | > 100 µM | – | – | – | – | – | – | – | – | – | – |
| COC(=O)c1cc(NC(=O)Cn2c3ccccc3c3ccccc32)cn1C | – | 89.2 µM | > 100 µM | > 100 µM | > 100 µM | > 100 µM | > 100 µM | > 100 µM | > 100 µM | > 100 µM | – | – | – | – | – | – | – | – | – | – |
